Experimental data taken from US10202373B2, “Heteroaryls and uses thereof” (MILLENNIUM PHARMACEUTICALS, INC., priority 2014, dated 2019).

Biological target: human VPS34 (Homo sapiens (Human), UniProt Q8NEB9)
Experiment: Human VPS34 enzyme assay (Adapta TR-FRET)
Type: biochemical
Conditions: for inhibition at 1.11 µM: 1 h, inhibition of VPS34 at a 1.11 μM concentration, read-out: Percent Inhibition; for IC50: human VPS34 enzyme assay, IC50 ranges
Protocol: VPS34 (accession number GB:BC033004) was cloned into pDEST20-Thombin as N-terminal GST tagged fusion proteins using the Gateway system (Invitrogen, catalog#11804-013). The sequences were verified before recombinant protein expression using the Baculovirus Expression System with Gateway® Technology. For expression VPS34 was infected at 1 MOI in SF9 cells and harvested 72 hours post infection. For purification, VPS34 is purified by Glutathione Sepharose 4 Fast Flow (GE Healthcare #17-5132-03) followed by HiTrap Q (GE Healthcare #17-1153-01). Human VPS34 Enzyme Assay Method 100 nL compounds in DMSO are added to wells of a 384 well microtitre plate (Greiner 780076). At room temperature: 5 ul VPS34 reaction buffer (Invitrogen Assay Buffer Q (diluted 1 in 5 with nanopure water) plus 2 mM DTT and 2 mM MnCl2) containing ATP (20 uM, Promega) and 200 uM PI-PS substrate (Invitrogen PV5122) is added followed immediately by 5 ul VPS34 reaction buffer (as above) containing VPS34 (5 nM, Millennium Protein Sciences Group) and the mixture is incubated with shaking at room temperature for 1 hour. Then 5 ul […]-detect mix (as per Invitrogen Adapta Assay kit (PV5009) instructions (contains kinase quench buffer, TR-FRET buffer, Adapta Eu anti-ADP antibody and Alexa Fluor 647 ADP tracer)) is added to quench the reaction. The plates are then incubated for 30 minutes at room temperature with shaking and then read on a BMG PheraStar Plus reader. For the assay methods described above, test compound percent inhibition, at various concentrations, is calculated relative to control (DMSO and EDTA) treated samples. Compound concentration versus percent inhibition curves are fitted to generate IC50 values. One skilled in the art will appreciate that the values generated either as percentage inhibition at a single concentration or IC50 values are subject to experimental variation. […] Additionally, compounds of the invention that inhibit VPS34 are described with the following IC50 ranges: […]

Chain of human VPS34 (Q8NEB9 whole entry): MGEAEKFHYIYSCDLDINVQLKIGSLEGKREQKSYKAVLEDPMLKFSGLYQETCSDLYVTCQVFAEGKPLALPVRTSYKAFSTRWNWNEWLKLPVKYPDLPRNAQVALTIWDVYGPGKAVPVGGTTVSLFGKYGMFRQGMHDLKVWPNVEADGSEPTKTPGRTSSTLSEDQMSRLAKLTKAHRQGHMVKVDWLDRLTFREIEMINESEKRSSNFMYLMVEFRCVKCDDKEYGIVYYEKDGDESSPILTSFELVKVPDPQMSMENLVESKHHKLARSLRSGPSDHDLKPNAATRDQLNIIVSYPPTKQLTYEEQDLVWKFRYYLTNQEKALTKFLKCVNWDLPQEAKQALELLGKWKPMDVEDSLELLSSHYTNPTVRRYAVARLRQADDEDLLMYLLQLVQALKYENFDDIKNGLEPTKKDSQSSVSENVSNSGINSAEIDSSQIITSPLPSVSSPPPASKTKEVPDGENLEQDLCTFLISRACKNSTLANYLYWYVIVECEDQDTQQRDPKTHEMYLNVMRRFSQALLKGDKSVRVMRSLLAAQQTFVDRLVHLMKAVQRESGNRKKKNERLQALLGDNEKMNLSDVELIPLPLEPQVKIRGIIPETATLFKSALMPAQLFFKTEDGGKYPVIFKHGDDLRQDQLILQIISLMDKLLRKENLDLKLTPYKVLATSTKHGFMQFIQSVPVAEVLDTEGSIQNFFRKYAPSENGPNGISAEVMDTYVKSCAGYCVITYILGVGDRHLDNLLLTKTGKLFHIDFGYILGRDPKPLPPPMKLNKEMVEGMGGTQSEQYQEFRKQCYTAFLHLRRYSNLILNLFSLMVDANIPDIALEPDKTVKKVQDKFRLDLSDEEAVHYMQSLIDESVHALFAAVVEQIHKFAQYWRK

SMILES | inhibition at 1.11 µM [%] | IC50 [nM]
Cc1ncc(-c2ccnc(NC(=O)C3CC3(F)F)c2)c2ccn(S(C)(=O)=O)c12 (racemic) [Compound I-35, (rac)-2,2-difluoro-N-{4-[7-methyl-1-(methylsulfonyl)-1H-pyrrolo[2,3-c]pyridin-4-yl]pyridin-2-yl}cyclopropanecarboxamide] | > 99 | < 10
COC(=O)Nc1cc(-c2cnc(OC)c3c2ccn3S(C)(=O)=O)ccn1 [Compound I-1, methyl {4-[7-methoxy-1-(methylsulfonyl)-1H-pyrrolo[2,3-c]pyridin-4-yl]pyridin-2-yl}carbamate] | > 99 | < 10
CCc1ncc(-c2ccnc(NC(C)=O)c2)c2ccn(S(C)(=O)=O)c12 [Compound I-3, N-{4-[7-ethyl-1-(methylsulfonyl)-1H-pyrrolo[2,3-c]pyridin-4-yl]pyridin-2-yl}acetamide] | > 99 | < 10
CC(=O)Nc1cc(-c2cncc3c2ccn3S(=O)(=O)C2CC2)c(F)cn1 [Compound I-8, N-{4-[1-(cyclopropylsulfonyl)-1H-pyrrolo[2,3-c]pyridin-4-yl]-5-fluoropyridin-2-yl}acetamide] | > 99 | 10 to 50
CS(=O)(=O)n1ccc2c(-c3ccnc(Nc4ncco4)c3)cncc21 [Compound I-9, 4-[1-(methylsulfonyl)-1H-pyrrolo[2,3-c]pyridin-4-yl]-N-(1,3-oxazol-2-yl)pyridin-2-amine] | > 99 | 10 to 50
COC(=O)Nc1cc(-c2cnc(OC)c3c2ccn3S(=O)(=O)c2ccccc2)ccn1 [Compound I-10, methyl {4-[7-methoxy-1-(phenylsulfonyl)-1H-pyrrolo[2,3-c]pyridin-4-yl]pyridin-2-yl}carbamate] | > 99 | < 10
CC(=O)Nc1cc(-c2cnc(C)c3c2ccn3S(=O)(=O)c2ccc(F)cc2F)ccn1 [Compound I-11, N-(4-{1-[(2,4-difluorophenyl)sulfonyl]-7-methyl-1H-pyrrolo[2,3-c]pyridin-4-yl}pyridin-2-yl)acetamide] | > 99 | 10 to 50
O=S(=O)(c1ccccc1)n1ccc2c(-c3ccnc(Nc4ncco4)c3)cncc21 [Compound I-13, N-(1,3-oxazol-2-yl)-4-[1-(phenylsulfonyl)-1H-pyrrolo[2,3-c]pyridin-4-yl]pyridin-2-amine] | > 99 | 10 to 50
CC(=O)Nc1cc(-c2cnc(C)c3c2c(F)cn3S(=O)(=O)C2CC2)ccn1 [Compound I-14, N-{4-[1-(cyclopropylsulfonyl)-3-fluoro-7-methyl-1H-pyrrolo[2,3-c]pyridin-4-yl]pyridin-2-yl}acetamide] | > 99 | 10 to 50
COC(=O)Nc1cc(-c2cnc(C)c3c2ccn3S(=O)(=O)CC(C)C)ccn1 [Compound I-15, methyl {4-[1-(isobutylsulfonyl)-7-methyl-1H-pyrrolo[2,3-c]pyridin-4-yl]pyridin-2-yl}carbamate] | > 99 | < 10
COC(=O)Nc1cc(-c2cncc3c2ccn3S(=O)(=O)N(C)C)ccn1 [Compound I-17, methyl {4-[1-(dimethylsulfamoyl)-1H-pyrrolo[2,3-c]pyridin-4-yl]pyridin-2-yl}carbamate] | > 99 | < 10
CC(=O)Nc1cc(-c2cncc3c2ccn3S(C)(=O)=O)ccn1 [Compound I-21, N-{4-[1-(methylsulfonyl)-1H-pyrrolo[2,3-]pyridin-4-yl]pyridin-2-yl}acetamide] | > 99 | 10 to 50
CC(=O)Nc1cc(-c2cnc(C)c3c2ccn3S(=O)(=O)N2CCCC2)ccn1 [Compound I-23, N-{4-[7-methyl-1-(pyrrolidin-1-ylsulfonyl)-1H-pyrrolo[2,3-c]pyridin-4-yl]pyridin-2-yl}acetamide] | > 99 | < 10
CCOC(=O)Nc1cc(-c2cncc3c2ccn3S(C)(=O)=O)ccn1 [Compound I-25, ethyl {4-[1-(methylsulfonyl)-1H-pyrrolo[2,3-c]pyridin-4-yl]pyridin-2-yl}carbamate] | > 99 | < 10
O=C(Cc1nnn[nH]1)Nc1cc(-c2cncc3c2ccn3S(=O)(=O)C2CC2)ccn1 [Compound I-27, N-{4-[1-(cyclopropylsulfonyl)-1H-pyrrolo[2,3-c]pyridin-4-yl]pyridin-2-yl}-2-(1H-tetrazol-5-yl)acetamide] | > 99 | 10 to 50

Further lines, results first:

inhibition at 1.11 µM [%] | IC50 [nM] | SMILES
> 99 | < 10 | COC(=O)Nc1cc(-c2cnc(C)c3c2ccn3S(=O)(=O)c2ccccc2)ccn1 [Compound I-2, methyl {4-[7-methyl-1-(phenylsulfonyl)-1H-pyrrolo[2,3-c]pyridin-4-yl]pyridin-2-yl}carbamate]
> 99 | < 10 | CC(=O)Nc1cc(-c2cnc(C)c3c2ccn3S(=O)(=O)c2ccccc2)ccn1 [Compound I-4, N-{4-[7-methyl-1-(phenylsulfonyl)-1H-pyrrolo[2,3-c]pyridin-4-yl]pyridin-2-yl}acetamide]
> 99 | 50 to 100 | CC(=O)Nc1cc(-c2cnc(C)c3c2c(C)cn3S(C)(=O)=O)ccn1 [Compound I-5, N-{4-[3,7-dimethyl-1-(methylsulfonyl)-1H-pyrrolo[2,3-c]pyridin-4-yl]pyridin-2-yl}acetamide]
> 99 | 10 to 50 | COC(=O)Nc1cc(-c2cnc(C)c3c2ccn3S(=O)(=O)N(C)C)ccn1 [Compound I-6, methyl {4-[1-(dimethylsulfamoyl)-7-methyl-1H-pyrrolo[2,3-c]pyridin-4-yl]pyridin-2-yl}carbamate]
> 99 | < 10 | CC(=O)Nc1cc(-c2cnc(C)c3c2ccn3S(=O)(=O)N(C)C)ccn1 [Compound I-7, N-{4-[1-(dimethylsulfamoyl)-7-methyl-1H-pyrrolo[2,3-c]pyridin-4-yl]pyridin-2-yl}acetamide]
> 99 | 10 to 50 | COC(=O)Nc1cc(-c2cnc(C)c3c2ccn3S(=O)(=O)C2CCCC2)ccn1 [Compound I-12, methyl {4-[1-(cyclopentylsulfonyl)-7-methyl-1H-pyrrolo[2,3-c]pyridin-4-yl]pyridin-2-yl}carbamate]
> 99 | < 10 | CCS(=O)(=O)n1ccc2c(-c3ccnc(NC(C)=O)c3)cnc(C)c21 [Compound I-16, N-{4-[1-(ethylsulfonyl)-7-methyl-1H-pyrrolo[2,3-c]pyridin-4-yl]pyridin-2-yl}acetamide]
> 99 | 10 to 50 | CC(=O)Nc1cc(-c2cnc(N(C)C)c3c2ccn3S(=O)(=O)C2CC2)ccn1 [Compound I-18, N-{4-[1-(cyclopropylsulfonyl)-7-(dimethylamino)-1H-pyrrolo[2,3-c]pyridin-4-yl]pyridin-2-yl}acetamide]
> 99 | 50 to 100 | CC(=O)Nc1cc(-c2cncc3[nH]ccc23)ccn1 [Compound I-20, N-[4-(1H-pyrrolo[2,3-c]pyridin-4-yl)pyridin-2-yl]acetamide]
> 99 | 50 to 100 | CC(=O)Nc1cc(-c2cncc3c2cnn3S(=O)(=O)C2CC2)ccn1 [Compound I-22, N-{4-[1-(cyclopropylsulfonyl)-1H-pyrazolo[3,4-c]pyridin-4-yl]pyridin-2-yl}acetamide]
> 99 | 10 to 50 | CCc1cc2c(-c3ccnc(NC(C)=O)c3)cncc2n1S(=O)(=O)c1ccccc1 [Compound I-24, N-{4-[2-ethyl-1-(phenylsulfonyl)-1H-pyrrolo[2,3-c]pyridin-4-yl]pyridin-2-yl}acetamide]
> 99 | 10 to 50 | COC(=O)Nc1cc(-c2cncc3c2ccn3S(=O)(=O)c2ccccc2)ccn1 [Compound I-28, methyl {4-[1-(phenylsulfonyl)-1H-pyrrolo[2,3-c]pyridin-4-yl]pyridin-2-yl}carbamate]
> 99 | 10 to 50 | COC(=O)Nc1cc(-c2cncc3c2ccn3S(C)(=O)=O)ccn1 [Compound I-29, methyl {4-[1-(methylsulfonyl)-1H-pyrrolo[2,3-c]pyridin-4-yl]pyridin-2-yl}carbamate]
99 | 10 to 50 | COC(=O)Nc1cc(-c2cncc3c2ccn3S(=O)(=O)C2CC2)ccn1 [Compound I-30, methyl {4-[1-(cyclopropylsulfonyl)-1H-pyrrolo[2,3-c]pyridin-4-yl]pyridin-2-yl}carbamate]
> 99 | 10 to 50 | CC(=O)Nc1cc(-c2cncc3c2cc(C)n3S(=O)(=O)c2ccccc2)ccn1 [Compound I-31, N-{4-[2-methyl-1-(phenylsulfonyl)-1H-pyrrolo[2,3-c]pyridin-4-yl]pyridin-2-yl}acetamide]
